Data taken from patent US11047004B2, “Thiolated nucleotide analogues for nucleic acid synthesis” (LIFE TECHNOLOGIES CORPORATION, priority 2014, dated 2021).

What was measured:
[1] = free amino acid in solution; cited from earlier work
Bst polymerase = Bst polymerase (Geobacillus stearothermophilus, UniProt P52026); assay: Polymerase extension assay with fluorescein-labeled hairpin oligonucleotide (fluorescence increase on incorporation); type: biochemical, Bacillus stearothermophilus; conditions: 2 nM Bst polymerase, 250 nM hairpin oligonucleotide, 37° C., ex 490 nm / em 525 nm; for polymerase incorporation reaction (fluorescence increase), CIP-treated nucleotide solution: nucleotide pre-treated with CIP
From the text: For the polymerase extension assays, a fluorescein-labeled oligonucleotide substrate was designed, and used in an assay to detect nucleotide incorporation. The labeled oligonucleotide is a hairpin-type oligonucleotide with a T-fluorescein residue located at the third position from the 3′ end. The 5′ end of the labeled oligonucleotide is a single stranded sequence 3′-AGGGGGG-5′. Thus, the first nucleotide to be inserted by a polymerase onto the 3′ end of the substrate is a TTP. The 5′ and 3′ ends of the hairpin oligonucleotide is shown below. A fluorescein is attached to the T residue, which is underlined and bolded: • TGC 3′ • […] 5′ (SEQ ID NO:83)
Without wishing to be bound by theory, it is postulated that when the third base from the 3′ end is labeled with a fluorphore (in this case the labeled nucleotide is a T), and when the 3′ terminal base is a cytosine or guanosine, then the fluorphore is in a stacked position with the 3′ terminal base, resulting in quenching the fluorescence from the fluorphore. When a thymidine is incorporated at the terminal 3′ end (e.g., via polymerase-mediated nucleotide incorporation), the fluorphore is un-quenched. This assay can be performed with the hairpin molecule described herein, or with two annealed single-strands that mimic the linear ends of this hairpin molecule.
A solution was prepared in the same buffer as above containing 250 nM of the hairpin oligonucleotide, 16 μM of a short oligonucleotide (5′-CCCCCC-3′, acting as a signal amplifier), and 2 nM of Bst polymerase. […] The plate was equilibrated at 37° C. in a fluorescence microplate reader, and then the dNTP solutions were mixed with the solutions of polymerase and fluorogenic hairpin oligonucleotide. The polymerase catalyzed incorporation reactions were followed by recording the fluorescence intensity changes using 490 nm for excitation and 525 nm for the emission. When a polymerase reaction occurred, an increase in the fluorescence intensity over time was detected (see FIG. 4). There was no change in fluorescence when no nucleotide incorporation reaction occurred (see FIG. 4).

[2] = biological target: calf intestinal phosphatase (CIP) (Bos taurus, UniProt P19111); assay: Phosphatase resistance: calf intestinal phosphatase (CIP) pre-treatment, then polymerase extension read-out; type: biochemical; conditions: 10 u/μL CIP, 37° C., 20 min, read-out by polymerase incorporation fluorescence (FIG. 4)
Procedure: As an example of this resistant, representative results from an exemplary experiment are depicted in FIG. 4. […] Phosphatase-mediated hydrolysis is reflected as a non-increasing level of fluorescence, whereas phosphatase resistance is reflected as an increase in normalized fluorescence intensity.
Two solutions were prepared as follows in 20 mM Tris HCl, pH 7.5, 20 mM NaCl, 10 mM MgCl2: (A) 80 μM of TTP, and (B) 200 μM of γ-S-TTP.
To both solution was added 1.5 μL of 10 u/μL of calf intestinal phosphatase (CIP), and the solutions were incubated at 37° C. for 20 min. The phosphatase was then removed by passing the solutions through a 10,000 molecular weight cut-off ultrafiltration membrane. The resulting solutions were then used for the polymerase extension reactions.
A solution was prepared in the same buffer as above containing 250 nM of the hairpin oligonucleotide, 16 μM of a short oligonucleotide (5′-CCCCCC-3′, acting as a signal amplifier), and 2 nM of Bst polymerase. Then 50 μL aliquots of this solution were placed in individual wells of a microtiter plate. In separate wells of the same plate were placed 50 μL aliquots of the CIP-treated solutions from above, as well as identical solutions that had not been treated with CIP. The plate was equilibrated at 37° C. in a fluorescence microplate reader, and then the dNTP solutions were mixed with the solutions of polymerase and fluorogenic hairpin oligonucleotide. The polymerase catalyzed incorporation reactions were followed by recording the fluorescence intensity changes using 490 nm for excitation and 525 nm for the emission. When a polymerase reaction occurred, an increase in the fluorescence intensity over time was detected (see FIG. 4). There was no change in fluorescence when no nucleotide incorporation reaction occurred (see FIG. 4).
A treatment of synthetically prepared γ-S-TTP with CIP can be used to remove any traces of contaminating dTTP that may be present in the preparation of γ-S-TTP.

Chain of calf intestinal phosphatase (CIP) (P19111 20-506 limits assumed): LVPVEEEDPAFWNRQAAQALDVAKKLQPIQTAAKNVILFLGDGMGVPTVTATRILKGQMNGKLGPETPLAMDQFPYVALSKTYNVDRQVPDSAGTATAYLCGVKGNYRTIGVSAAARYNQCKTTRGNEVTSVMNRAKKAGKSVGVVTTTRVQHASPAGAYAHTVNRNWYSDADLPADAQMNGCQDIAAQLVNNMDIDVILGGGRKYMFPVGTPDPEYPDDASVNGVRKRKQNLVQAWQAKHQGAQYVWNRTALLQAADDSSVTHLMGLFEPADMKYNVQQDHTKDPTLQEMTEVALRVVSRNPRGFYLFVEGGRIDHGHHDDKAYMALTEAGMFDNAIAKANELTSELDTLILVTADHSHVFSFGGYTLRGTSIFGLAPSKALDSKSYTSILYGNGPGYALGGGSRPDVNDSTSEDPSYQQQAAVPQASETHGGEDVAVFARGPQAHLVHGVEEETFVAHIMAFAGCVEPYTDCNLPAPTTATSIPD
Chain of Bst polymerase (P52026 other isoform, or with tags, fused parts or gaps with the stated changes): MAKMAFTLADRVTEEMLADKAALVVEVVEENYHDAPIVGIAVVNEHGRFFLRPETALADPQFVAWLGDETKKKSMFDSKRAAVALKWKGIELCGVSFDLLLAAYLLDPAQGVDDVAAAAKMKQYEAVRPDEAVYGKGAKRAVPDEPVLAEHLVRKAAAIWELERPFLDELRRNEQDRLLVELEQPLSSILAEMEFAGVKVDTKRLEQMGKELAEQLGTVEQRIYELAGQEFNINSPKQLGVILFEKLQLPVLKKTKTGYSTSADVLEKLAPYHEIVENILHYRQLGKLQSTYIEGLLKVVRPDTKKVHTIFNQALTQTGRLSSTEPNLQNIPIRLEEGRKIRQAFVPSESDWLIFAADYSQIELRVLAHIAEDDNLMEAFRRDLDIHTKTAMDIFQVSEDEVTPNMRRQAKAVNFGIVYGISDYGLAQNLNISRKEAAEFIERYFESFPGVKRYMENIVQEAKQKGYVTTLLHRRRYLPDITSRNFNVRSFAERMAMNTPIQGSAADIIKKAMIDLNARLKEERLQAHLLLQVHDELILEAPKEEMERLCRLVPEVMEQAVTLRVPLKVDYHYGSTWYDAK

N[C@@H](CC(=O)O)C(=O)O [Aspartic Acid]
pKa α-amino [1]: 9.82

C[C@H](N)C(=O)O [Alanine]
pKa α-carboxylic acid [1]: 2.35

Cc1cn([C@H]2C[C@H](O)[C@@H](COP(=O)(O)OP(=O)(O)OP(O)(O)=S)O2)c(=O)[nH]c1=O [γ-S-TTP, γ-S-thymidinyl-triphosphate]
polymerase incorporation reaction (fluorescence increase), non-treated nucleotide solution (Bst polymerase; nucleotide not treated with CIP): polymerase reactions can be detected | polymerase incorporation reaction (fluorescence increase), CIP-treated nucleotide solution (Bst polymerase): polymerase reactions can be detected | resistance to degradation by calf intestinal (alkaline) phosphatase [2]: resistant to the alkaline phosphatase activity | resistance to degradation by calf intestinal (alkaline) phosphatase ([2]; listed as gamma STTP): showed a resistance to phosphatase

Cc1cn([C@H]2C[C@H](O)[C@@H](COP(=O)(O)OP(=O)(O)OP(=O)(O)O)O2)c(=O)[nH]c1=O [TTP, thymidinyl-triphosphate, reference compound]
polymerase incorporation reaction (fluorescence increase), CIP-treated nucleotide solution (Bst polymerase): no incorporation reaction takes place | resistance to degradation by calf intestinal (alkaline) phosphatase [2]: not reflected

CC(C)[C@H](N)C(=O)O [Valine]
pKa α-carboxylic acid [1]: 2.29

N[C@@H](Cc1ccccc1)C(=O)O [Phenylalanine]
pKa α-amino [1]: 9.24 | pKa α-carboxylic acid [1]: 2.58

CC[C@H](C)[C@H](N)C(=O)O [Isoleucine]
pKa α-amino [1]: 9.76
